In the oligonucleotide strings, read from the 5' end, every base follows the letter of its sugar. An asterisk marks phosphorothioate; unmarked linkages are phosphodiester. Other units and linkages are bracketed, terminal groups are in braces. A string of capitals states the bases alone. e = 2'-O-(2-methoxyethyl) (MOE); [5mC] = 5-methylcytosine; d = 2'-deoxy (DNA)
Each substance was assayed on mir-15a pri-miRNA (assay: mir-15a pri-miRNA expression in HepG2 cells (real-time RT-PCR)). Settings: HepG2, 100 nM.
Type: cell-based, human
Procedure: Using the real-time RT-PCR methods described in Example 19, the expression levels of the mir-15a pri-miRNA were compared in HepG2 cells treated with a nested series of chimeric gapmer oligomeric compounds, targeting and spanning the entire length of the mir-15a pri-miRNA; these compounds are shown in Table 45, below. […] All cytidine residues are 5-methylcytidines. Using the transfection methods described herein, HepG2 cells were treated with 100 nM of each of these gapmer oligomeric compounds. Total RNA was isolated from HepG2 cells by lysing cells in 1 mL TRIZOL™ (Invitrogen) using the manufacturer's recommended protocols. Real-time RT-PCR analysis was performed using a primer/probe set specific for the mir-15a pri-miRNA molecule to assess the effects of these compounds on expression of the mir-15a pri-miRNA molecule. ISIS 339317 ([…]; SEQ ID NO.: 885) was used as the forward primer, ISIS 339318 (TGGCCTGCACCTTTTCAAA; SEQ ID NO.: 886) was used as the reverse primer, and ISIS 339319 ([…]; SEQ ID NO.: 887) was used as the probe. Total RNA was quantified using RiboGreen™ RNA quantification reagent (Molecular Probes, Inc. Eugene, Oreg.), expression levels observed for each target are normalized to 5.8S rRNA, and values are expressed relative to the untreated control. Inhibition of expression of the mir15a pri-miRNA by these gapmer oligomeric compounds is expressed as a percentage of RNA levels in untreated control cells.

Substance	expression of the mir-15a pri-miRNA molecule
ISIS 347970: 5-10-5 2′-MOE gapmer PS; targets mir-15a pri-miRNA (antisense eA*eT*eA*eT*eG*dG*d[5mC]*d[5mC]*dT*dG*d[5mC]*dA*d[5mC]*d[5mC]*dT*eT*eT*eT*e[5mC]*eA)	significant inhibition of expression of the mir-15a pri-miRNA molecule
ISIS 347980: 5-10-5 2′-MOE gapmer PS; targets mir-15a pri-miRNA (antisense eA*eG*eA*eT*e[5mC]*dA*dG*dA*dT*d[5mC]*d[5mC]*dT*dT*dG*dT*eA*eT*eT*eT*eT)	significant inhibition of expression of the mir-15a pri-miRNA molecule
ISIS 347983: 5-10-5 2′-MOE gapmer PS; targets mir-15a pri-miRNA (antisense eA*eA*eA*eT*eA*dT*dA*dT*dT*dT*dT*d[5mC]*dT*dT*d[5mC]*eA*eG*eA*eA*eG)	significant inhibition of expression of the mir-15a pri-miRNA molecule
ISIS 347968: 5-10-5 2′-MOE gapmer PS; targets mir-15a pri-miRNA (antisense e[5mC]*e[5mC]*eT*eG*e[5mC]*dA*d[5mC]*d[5mC]*dT*dT*dT*dT*d[5mC]*dA*dA*eA*eA*eT*e[5mC]*e[5mC])	significant inhibition of expression of the mir-15a pri-miRNA molecule
ISIS 347966: 5-10-5 2′-MOE gapmer PS; targets mir-15a pri-miRNA (antisense eT*eG*e[5mC]*eT*eA*d[5mC]*dT*dT*dT*dA*d[5mC]*dT*d[5mC]*d[5mC]*dA*eA*eG*eG*eT*eT)	significant inhibition of expression of the mir-15a pri-miRNA molecule
ISIS 347975: 5-10-5 2′-MOE gapmer PS; targets mir-15a pri-miRNA (antisense eT*eT*eT*eT*eG*dA*dG*dG*d[5mC]*dA*dG*d[5mC]*dA*d[5mC]*dA*eA*eT*eA*eT*eG)	significant inhibition of expression of the mir-15a pri-miRNA molecule
ISIS 347977: 5-10-5 2′-MOE gapmer PS; targets mir-15a pri-miRNA (antisense eT*eT*eG*eT*eA*dT*dT*dT*dT*dT*dG*dA*dG*dG*d[5mC]*eA*eG*e[5mC]*eA*e[5mC])	stimulate an increase in expression levels of the mir-15a pri-miRNA
ISIS 347967: 5-10-5 2′-MOE gapmer PS; targets mir-15a pri-miRNA (antisense eG*e[5mC]*eA*e[5mC]*e[5mC]*dT*dT*dT*dT*d[5mC]*dA*dA*dA*dA*dT*e[5mC]*e[5mC]*eA*e[5mC]*eA)	stimulate an increase in expression levels of the mir-15a pri-miRNA

Same assay, conditions: HepG2 cells, 100 nM, real-time RT-PCR

Substance	Expression of mir-15a pri-miRNA (% UTC)
347967 (eG*e[5mC]*eA*e[5mC]*e[5mC]*dT*dT*dT*dT*d[5mC]*dA*dA*dA*dA*dT*e[5mC]*e[5mC]*eA*e[5mC]*eA) [compound 347967]	152.3 % UTC
347982 (eT*eT*e[5mC]*eA*eG*dA*dA*dG*dA*dT*d[5mC]*dA*dG*dA*dT*e[5mC]*e[5mC]*eT*eT*eG; antisense) [compound 347982]	82.2 % UTC
347972 (eA*eG*e[5mC]*eA*e[5mC]*dA*dA*dT*dA*dT*dG*dG*d[5mC]*d[5mC]*dT*eG*e[5mC]*eA*e[5mC]*e[5mC]; antisense) [compound 347972]	98.6 % UTC
347978 (eT*e[5mC]*e[5mC]*eT*eT*dG*dT*dA*dT*dT*dT*dT*dT*dG*dA*eG*eG*e[5mC]*eA*eG; antisense) [compound 347978]	51.1 % UTC
347975 (eT*eT*eT*eT*eG*dA*dG*dG*d[5mC]*dA*dG*d[5mC]*dA*d[5mC]*dA*eA*eT*eA*eT*eG; antisense) [compound 347975]	9.2 % UTC
347977 (eT*eT*eG*eT*eA*dT*dT*dT*dT*dT*dG*dA*dG*dG*d[5mC]*eA*eG*e[5mC]*eA*e[5mC]) [compound 347977]	111.3 % UTC
347965 (eG*e[5mC]*eT*eA*e[5mC]*dT*dT*dT*dA*d[5mC]*dT*d[5mC]*d[5mC]*dA*dA*eG*eG*eT*eT*eT; antisense) [compound 347965]	86.0 % UTC
347966 (eT*eG*e[5mC]*eT*eA*d[5mC]*dT*dT*dT*dA*d[5mC]*dT*d[5mC]*d[5mC]*dA*eA*eG*eG*eT*eT; antisense) [compound 347966]	39.2 % UTC
347971 (eA*e[5mC]*eA*eA*eT*dA*dT*dG*dG*d[5mC]*d[5mC]*dT*dG*d[5mC]*dA*e[5mC]*e[5mC]*eT*eT*eT; antisense) [compound 347971]	92.8 % UTC
347970 (eA*eT*eA*eT*eG*dG*d[5mC]*d[5mC]*dT*dG*d[5mC]*dA*d[5mC]*d[5mC]*dT*eT*eT*eT*e[5mC]*eA; antisense) [compound 347970]	2.2 % UTC
347964 (eT*eA*eT*eA*eA*d[5mC]*dA*dT*dT*dG*dA*dT*dG*dT*dA*eA*eT*eA*eT*eG; antisense) [compound 347964]	13.7 % UTC
347968 (e[5mC]*e[5mC]*eT*eG*e[5mC]*dA*d[5mC]*d[5mC]*dT*dT*dT*dT*d[5mC]*dA*dA*eA*eA*eT*e[5mC]*e[5mC]; antisense) [compound 347968]	8.4 % UTC
347976 (eT*eA*eT*eT*eT*dT*dT*dG*dA*dG*dG*d[5mC]*dA*dG*d[5mC]*eA*e[5mC]*eA*eA*eT; antisense) [compound 347976]	73.0 % UTC
347979 (eA*eG*eA*eT*e[5mC]*d[5mC]*dT*dT*dG*dT*dA*dT*dT*dT*dT*eT*eG*eA*eG*eG; antisense) [compound 347979]	74.9 % UTC
347983 (eA*eA*eA*eT*eA*dT*dA*dT*dT*dT*dT*d[5mC]*dT*dT*d[5mC]*eA*eG*eA*eA*eG; antisense) [compound 347983]	13.0 % UTC
347974 (eT*eG*eA*eG*eG*d[5mC]*dA*dG*d[5mC]*dA*d[5mC]*dA*dA*dT*dA*eT*eG*eG*e[5mC]*e[5mC]; antisense) [compound 347974]	98.1 % UTC
347969 (eT*eG*eG*e[5mC]*e[5mC]*dT*dG*d[5mC]*dA*d[5mC]*d[5mC]*dT*dT*dT*dT*e[5mC]*eA*eA*eA*eA; antisense) [compound 347969]	39.5 % UTC
347980 (eA*eG*eA*eT*e[5mC]*dA*dG*dA*dT*d[5mC]*d[5mC]*dT*dT*dG*dT*eA*eT*eT*eT*eT; antisense) [compound 347980]	3.6 % UTC
